Active and inactive are the calls of the source. The calls are words filed in the database; no cut-off is given here.
Tests used:
[1] = test system: MDA-MB-231; assay: Antiproliferative activity against human MDA-MB-231 cells assessed as cell growth inhibition incubated for 4 hrs by MTT assay; format: functional, cell-based; conditions: MDA-MB-231, 4 h
[2] = test system: HT-29; assay: Antiproliferative activity against human HT-29 cells assessed as cell growth inhibition incubated for 4 hrs by MTT assay; format: functional, cell-based; conditions: HT-29, 4 h
[3] = test system: A549; assay: Antiproliferative activity against human A549 cells assessed as cell growth inhibition incubated for 4 hrs by MTT assay; format: functional, cell-based; conditions: A549, 4 h
[4] = Selectivity index, ratio of IC50 for antiproliferative activity against human HT-29 cells to IC50 for antiproliferative activity against human MDA-MB-231 cells; format: functional
[5] = Selectivity index, ratio of IC50 for antiproliferative activity against human A549 cells to IC50 for antiproliferative activity against human MDA-MB-231 cells; format: functional
[6] = test system: MDA-MB-231; assay: Inhibition of colony formation in human MDA-MB-231 cells upto 5 uM for 9 days by crystal violet staining based assay; format: functional, cell-based; conditions: time 9.0 day

SMILES | IC50 [1] [µM] | IC50 [2] [µM] | IC50 [3] [µM] | Ratio IC50 [4] | Ratio IC50 [5] | inhibition [6]
COc1ccc(/C=C/C(=O)NCCNC(=O)[C@H]2CC[C@H]3[C@@H]4CCC5=CC(=O)CC[C@]5(C)[C@H]4CC[C@]23C)cc1 | 22.2 | 35 | > 40 | 1.6 | >1.8 | –
C[C@]12CC[C@H]3[C@@H](CCC4=CC(=O)C=C[C@@]43C)[C@@H]1CC[C@@H]2C(=O)NCCNC(=O)/C=C/c1ccc(Cl)cc1 | > 40 | > 40 | 38.7 | – | – | –
COc1ccc(/C=C/C(=O)NCCNC(=O)[C@H]2CC[C@H]3[C@@H]4CCC5=CC(=O)CC[C@]5(C)[C@H]4CC[C@]23C)cc1OC | 15.2 | 14.7 | 35.1 | 1 | 2.3 | –
C[C@]12CC[C@H]3[C@@H](CCC4=CC(=O)C=C[C@@]43C)[C@@H]1CC[C@@H]2C(=O)NCCNC(=O)/C=C/c1cccc([N+](=O)[O-])c1 | 13.7 | > 40 | 34.2 | >2.9 | 2.5 | –
COc1cc(/C=C/C(=O)NCCNC(=O)[C@H]2CC[C@H]3[C@@H]4CCC5=CC(=O)CC[C@]5(C)[C@H]4CC[C@]23C)cc(OC)c1OC | > 40 | > 40 | > 40 | – | – | –
C[C@]12CC[C@H]3[C@@H](CCC4=CC(=O)C=C[C@@]43C)[C@@H]1CC[C@@H]2C(=O)NCCNC(=O)/C=C/c1ccc([N+](=O)[O-])cc1 | 22.6 | > 40 | > 40 | >1.8 | >1.8 | –
COc1ccc(/C=C/C(=O)NCCNC(=O)[C@H]2CC[C@H]3[C@@H]4CCC5=CC(=O)C=C[C@]5(C)[C@H]4CC[C@]23C)cc1OC | 5.75 | > 40 | > 40 | >7 | >7 | –
C[C@]12CC[C@H]3[C@@H](CCC4=CC(=O)C=C[C@@]43C)[C@@H]1CC[C@@H]2C(=O)NCCNC(=O)/C=C/c1ccc(C(F)(F)F)cc1 | 12.5 | > 40 | 38.1 | >3.2 | 3.2 | –
C[C@]12CC[C@H]3[C@@H](CCC4=CC(=O)CC[C@@]43C)[C@@H]1CC[C@@H]2C(=O)NCCNC(=O)/C=C/c1ccc(Cl)cc1 | 8.19 | 15 | 35.7 | 1.8 | 4.3 | –
COc1cc(/C=C/C(=O)NCCNC(=O)[C@H]2CC[C@H]3[C@@H]4CCC5=CC(=O)C=C[C@]5(C)[C@H]4CC[C@]23C)cc(OC)c1OC | > 40 | > 40 | 35.9 | – | – | –
C[C@]12CC[C@H]3[C@@H](CCC4=CC(=O)CC[C@@]43C)[C@@H]1CC[C@@H]2C(=O)NCCNC(=O)/C=C/c1ccc(C(F)(F)F)cc1 | 9.21 | 34.2 | > 40 | 3.7 | >4.3 | –
COc1ccccc1/C=C/C(=O)NCCNC(=O)[C@H]1CC[C@H]2[C@@H]3CCC4=CC(=O)C=C[C@]4(C)[C@H]3CC[C@]12C | 0.52 | 16.8 | 29.9 | 32.3 | 57.6 | Active
CC(C)(C)OC(=O)NCCNC(=O)[C@H]1CC[C@H]2[C@@H]3CCC4=CC(=O)CC[C@]4(C)[C@H]3CC[C@]12C | 24.8 | > 40 | > 40 | – | – | –
C[C@]12CC[C@H]3[C@@H](CCC4=CC(=O)C=C[C@@]43C)[C@@H]1CC[C@@H]2C(=O)NCCNC(=O)/C=C/c1ccccc1 | 5.82 | 12.7 | 26.9 | 2.2 | 4.6 | –
C[C@]12CC[C@H]3[C@@H](CCC4=CC(=O)CC[C@@]43C)[C@@H]1CC[C@@H]2C(=O)NCCNC(=O)/C=C/c1cccc([N+](=O)[O-])c1 | 11.2 | 25.4 | 17.7 | 2.3 | 1.6 | –
O=c1[nH]cc(F)c(=O)[nH]1 [FLUOROURACIL] | 9.89 | 12.7 | 14.5 | 1.3 | 1.5 | –
C[C@]12CC[C@H]3[C@@H](CCC4=CC(=O)CC[C@@]43C)[C@@H]1CC[C@@H]2C(=O)NCCNC(=O)/C=C/c1ccc([N+](=O)[O-])cc1 | 12 | 27.8 | > 40 | 2.3 | >3.3 | –
CC(C)(C)OC(=O)NCCNC(=O)[C@H]1CC[C@H]2[C@@H]3CCC4=CC(=O)C=C[C@]4(C)[C@H]3CC[C@]12C | > 40 | > 40 | > 40 | – | – | –
C[C@]12CC[C@H]3[C@@H](CCC4=CC(=O)CC[C@@]43C)[C@@H]1CC[C@@H]2C(=O)NCCNC(=O)/C=C/c1ccccc1 | 10.3 | 9.49 | 27.3 | 1.1 | 2.7 | –
O=C(/C=C/c1ccccc1)c1ccccc1 [CHALCONE] | 42.8 | 45.9 | 69.2 | – | – | –
COc1ccc(/C=C/C(=O)NCCNC(=O)[C@H]2CC[C@H]3[C@@H]4CCC5=CC(=O)C=C[C@]5(C)[C@H]4CC[C@]23C)cc1 | 11.5 | > 40 | 29.6 | >3.5 | 2.6 | –

— ChEMBL document CHEMBL5241053, “Discovery of novel steroidal-chalcone hybrids with potent and selective activity against triple-negative breast cancer” (Bioorg Med Chem, 2020)
